Experiments:
Type in all cases: biochemical
[1] = tested on: bisulfite-treated human genomic DNA (MINT1, RAR, THBS1, MINT31); experiment: PCR amplification of bisulfite-treated DNA; settings: 40 cycles (FIG. 12)
Description: Using bisulfite-treated DNA as a template and various primers, the difference in PCR amplification was compared. For comparison, KOD mutant (Y7A/V93K) and KOD (wild-type), each mixed with 1 μg of a KOD antibody per U of the enzyme, and Taq DNA polymerase mixed with an antibody (a mixture of equal amounts of Taq DNA polymerase (produced by Toyobo Co. Ltd.) and Anti-Taq High (produced by Toyobo Co. Ltd.)) were used.
The bisulfite-treated DNA used was human genomic DNA (produced by Roche) that had been treated with a MethylCode Bisulfite Conversion Kit of Invitrogen.
For PCR with the KOD mutant (Y7A/V93K) and PCR with the KOD, a buffer, MgSO4, and dNTPs included in KOD-Plus-Ver. 2 (produced by Toyobo Co. Ltd.) were used. 50 μl of individual reaction solutions containing 1× PCR buffer, 1.5 mM MgSO4, dNTPs (dATP, dTTP, dCTP, dGTP) in an amount of 0.2 mM, primers (SEQ ID NOs: 42 and 43 for amplification of MINT1; SEQ ID NOs: 44 and 45for amplification of RAR; SEQ ID NOs: 46 and 47 for amplification of THBS1; SEQ ID NOs: 48 and 49 for amplification of MINT31) in an amount of 15 pmol, 1 μl of bisulfite-treated DNA extract, and 1 U of each respective enzyme mixed with the antibody were used. PCR was performed using a GeneAmp PCR system 9700 (Applied Biosystems) on the following schedule: preliminary reaction at 94° C. for 2 minutes, followed by 40 cycles, each cycle consisting of 98° C. for 10 seconds, 55° C. for 15 seconds, and 68° C. for 1 minute.
For PCR with the Taq DNA polymerase, 50 μl of a reaction solution containing 1× buffer included in Blend Taq (product of Toyobo), dNTPs (dATP, […], dCTP, dGTP) in an amount of 0.2 mM, primers in an amount of 15 pmol (the same as above), 1 μl of bisulfite-treated DNA extract, and 2.5 U of the enzyme mixed with the antibody was used. […]
(§1) After the completion of each individual reaction, each of the resulting reaction solutions was analyzed using a DNA-1000 kit for MultiNA (produced by Shimadzu Corporation) to confirm amplified DNA fragments.

Psychrobacter DNA = experiment: PCR amplification using inosine-containing primers
Description: Using inosine-containing primers, the difference in PCR amplification was compared. For comparison, KOD mutants and KOD (wild-type), each mixed with 1 μg of a KOD antibody per U of the enzyme, and Taq DNA polymerase mixed with an antibody (a mixture of equal amounts of Taq DNA polymerase (produced by Toyobo Co. Ltd.) and Anti-Taq High (produced by Toyobo Co. Ltd.)) were used.
For PCR with the KOD mutants and PCR with the KOD, a buffer, MgSO4, and dNTPs included in KOD-Plus-Ver. 2 (produced by Toyobo Co. Ltd.) were used. 50 μl of individual reaction solutions containing 1× PCR buffer, 1.5 mM MgSO4, dNTPs (dATP, dTTP, dCTP, dGTP) in an amount of 0.2 mM, primers (SEQ ID NOs: 40 and 41) in an amount of 75 pmol or 150 pmol, 100 ng of Psychrobacter DNA, and 1 U of each respective enzyme mixed with the antibody were used. PCR was performed using a GeneAmp PCR system 9700 (Applied Biosystems) on the following schedule: preliminary reaction at 94° C. for 2 minutes, followed by 35 cycles, each cycle consisting of 98° C. for 10 seconds, 54° C. for 10 seconds, and 68° C. for 1 minute.
For PCR with the Taq DNA polymerase, 50 μl of a reaction solution containing 1× buffer included in Blend Taq (product of Toyobo), dNTPs (dATP, […], dCTP, dGTP) in an amount of 0.2 mM, primers in an amount of 75 pmol or 150 pmol (the same as above), 100 ng of Psychrobacter DNA, and 2.5 U of the enzyme mixed with the antibody was used. PCR was performed using a GeneAmp PCR system 9700 (Applied Biosystems) on the following schedule: preliminary reaction at 94° C. for 2 minutes, followed by 35 cycles, each cycle consisting of 94° C. for 30 seconds, 54° C. for 30 seconds, and 68° C. for 1 minute.
as §1

[2] = tested on: 1.3 kbp, 2.8 kbp, and 3.6 kbp of human β-globin; experiment: Amplification of long-chain DNA in PCR using dUTP; settings: 1.3, 2.8, 3.6 kbp; 100% dUTP (FIGS. 9 and 10)
Description: Amplification of 1.3 kbp, 2.8 kbp, and 3.6 kbp of human β-globin in PCR using dUTP was compared. For amplification, each enzyme was used after being mixed with 1 μg of a KOD antibody per U of the enzyme. For PCR, components included in KOD-Plus-Ver. 2 (produced by Toyobo Co. Ltd.) were used. 50 μl of individual reaction solutions containing 1× PCR buffer, 1.5 mM MgSO4, dNTPs (dATP, dUTP, dCTP, dGTP) in an amount of 2 mM in which dTTP was replaced by dUTP, primers in an amount of 15 pmol (SEQ ID NOs: 25 and 26 for amplification of 1.3 kbp; SEQ ID NOs: 26 and 29 for amplification of 2.8 kbp; SEQ ID NOs: 30 and 31 for amplification of 3.6 kbp), 10 ng of human genomic DNA (produced by Roche), and 1 U of each respective enzyme mixed with the antibody were used. PCR was performed using a GeneAmp PCR system 9700 (Applied Biosystems) on the following schedule: preliminary reaction at 94° C. for 2 minutes, followed by 35 cycles, each cycle consisting of 98° C. for 10 seconds, 65° C. for 30 seconds, and 68° C. for about 1 minute per kbp (1 minute and 30 seconds for amplification of 1.3 kbp; 3 minutes for amplification of 2.8 kbp; 4 minutes for amplification of 3.6 kbp). As a control, amplification was also performed using Taq DNA polymerase. Taq DNA polymerase produced by Toyobo Co. Ltd. mixed with Anti-Taq High (produced by Toyobo Co. Ltd.) was used. 50 μl of a reaction solution containing 1× buffer included in Blend Taq, dNTPs (dATP, dUTP, dCTP, dGTP) in an amount of 2 mM in which dTTP was replaced by dUTP, primers in an amount of 10 pmol the same as the above), 10 ng of human genomic DNA (produced by Roche), and 2.5 U of the enzyme mixed with the antibody was used. PCR was performed using a GeneAmp PCR system 9700 (produced by Applied Biosystems) on the following schedule: preliminary reaction at 94° C. for 2 minutes, followed by 35 cycles, each cycle consisting of 94° C. for 30 seconds, 65° C. for 30 seconds, and 68° C. for about 1 minute per kbp (1 minute and 30 seconds for amplification of 1.3 kbp; 3 minutes for amplification of 2.8 kbp; 4 minutes for amplification of 3.6 kbp). After the completion of each individual reaction, 5 μl of each of the resulting reaction solutions was subjected to agarose electrophoresis, followed by ethidium bromide staining, and the amount of amplified DNA fragments was confirmed under ultraviolet irradiation. FIGS. 9 and 10 show the results.

[3] = tested on: 0.7 kbp of human β-globin amplified in PCR with dUTP; experiment: Degradation with UNG of DNA amplified in the presence of dUTP; settings: 37° C. for 10 minutes (FIG. 13)
Description: It was confirmed whether 0.7 kbp of human β-globin amplified using KOD mutant with reduced uracil sensitivity (N210D/Y7A/P36H) in PCR with dUTP was degraded by being reacted with UNG. For PCR, components included in KOD-Plus-Ver. 2 (produced by Toyobo Co. Ltd.) were used. 50 μl of a reaction solution containing 1× PCR buffer, 1.5 mM MgSO4, dNTPs (dATP, dUTP, dCTP, dGTP) in an amount of 2 mM in which dTTP was replaced by dUTP, primers (SEQ ID NOs: 50 and 51) in an amount of 15 pmol, 10 ng of human genomic DNA (produced by Roche), and 1 U of the enzyme mixed with an antibody was used. PCR was performed using a GeneAmp PCR system 9700 (Applied Biosystems) on the following schedule: preliminary reaction at 94° C. for 2 minutes, followed by 35 cycles, each cycle consisting of 98° C. for 10 seconds, 60° C. for 30 seconds, and 68° C. for 1 minute. The amplification products were diluted with the above-mentioned 1× PCR buffer to 10 ng/μl, 8 μl of the diluted amplification products was mixed with 2 μl of various concentrations of UNG (produced by Roche), and the mixtures were reacted at 37° C. for 10 minutes. After the completion of each individual reaction, each of the mixtures was analyzed using a DNA-1000 kit for MultiNA (produced by Shimadzu Corporation) to confirm the amount of amplification products.

Molecule | amplification of bisulfite-treated DNA [1] | amount of inosine-containing primers at which amplification was observed (Psychrobacter DNA; 75 pmol or 150 pmol tested) | amplification with inosine-containing primers (Psychrobacter DNA; primers 75 pmol or 150 pmol, 35 cycles (FIG. 11)) | amount of amplification of long-chain DNA with dUTP [2] | degradation with UNG of DNA amplified with the polymerase in the presence of dUTP [3]
Taq DNA polymerase: Taq DNA polymerase produced by Toyobo Co. Ltd. mixed with Anti-Taq High, used as control [reference compound] | stable amplification was confirmed | 150 pmol | stable amplification was confirmed | cannot be amplified | –
Pfu Y7A/V93K: modified Pfu DNA polymerase with Y7A and V93K (protein, UniProt P61875 1-775, looked up, variant Y7A V93K) DNA polymerase: MILDVDAITEEGKPVIRLFKKENGKFKIEHDRTFRPYIYALLRDDSKIEEVKKITGERHGKIVRIVDVEKVEKKFLGKPITVWKLYLEHPQDKPTIREKVREHPAVVDIFEYDIPFAKRYLIDKGLIPMEGEEELKILAFDIETLYHEGEEFGKGPIIMISYADENEAKVITWKNIDLPYVEVVSSEREMIKRFLRIIREKDPDIIVTYNGDSFDFPYLAKRAEKLGIKLTIGRDGSEPKMQRIGDMTAVEVKGRIHFDLYHVITRTINLPTYTLEAVYEAIFGKPKEKVYADEIAKAWESGENLERVAKYSMEDAKATYELGKEFLPMEIQLSRLVGQPLWDVSRSSTGNLVEWFLLRKAYERNEVAPNKPSEEEYQRRLRESYTGGFVKEPEKGLWENIVYLDFRALYPSIIITHNVSPDTLNLEGCKNYDIAPQVGHKFCKDIPGFIPSLLGHLLEERQKIKTKMKETQDPIEKILLDYRQKAIKLLANSFYGYYGYAKARWYCKECAESVTAWGRKYIELVWKELEEKFGFKVLYIDTDGLYATIPGGESEEIKKKALEFVKYINSKLPGLLELEYEGFYKRGFFVTKKRYAVIDEEGKVITRGLEIVRRDWSEIAKETQARVLETILKHGDVEEAVRIVKEVIQKLANYEIPPEKLAIYEQITRPLHEYKAIGPHVAVAKKLAAKGVKIKPGMVIGYIVLRGDGPISNRAILAEEYDPKKHKYDAEYYIENQVLPAVLRILEGFGYRKEDLRYQKTRQVGLTSWLNIKKS | – | – | – | provided larger amounts of amplification | the DNA was degraded with UNG
